TGI data for eleven compounds are collected here from PubChem BioAssay (NCI).

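Step 1: Grow cells in 96-well plates. Step 2: Expose to compound for 48 hours at 5 concentrations. Step 3: Interpolate endpoints linearly; if unreached, use highest concentration. TGI: concentration producing complete growth inhibition.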

Some test systems named below: 786-0 renal; A498 renal; A549 NSCLC; BT-549 breast; HT29 colon; MCF7 breast; MDA-N; MOLT-4 leukemia; NCI-H460 lung; NCI-H522 lung; NCI/ADR-RES ovarian; SF-268 CNS; SK-MEL-2 melanoma; SK-MEL-5 melanoma; SNB-19 CNS; SNB-75 CNS; SW-620 colon; OVCAR-3 ovarian; UACC-62 melanoma; UO-31 renal.
Common to all, as to test: NCI tumour cell line growth inhibition, 48 h

Consider `c1cnn(C23C4C5C6C4C2C6C53)c1` (centres undefined), for which the TGI in the assay on 786-0 renal, with A498 renal, with A549 NSCLC, in the assay with BT-549 breast, in the assay on HT29 colon and in the assay with MCF7 breast was over 100 µM in each case. Besides, the TGI in the assay with MDA-N, with MOLT-4 leukemia, with NCI-H460 lung, in the assay with NCI-H522 lung, in the assay with NCI/ADR-RES ovarian and in the assay with SF-268 CNS was over 100 µM throughout. Moreover, the TGI with SK-MEL-2 melanoma, with SK-MEL-5 melanoma, with SNB-19 CNS, with SNB-75 CNS and in the assay with SW-620 colon was over 100 µM each time.
With `O=c1[nH]nc(Cc2ccc(Cl)cc2)n1/N=C/c1ccco1`, the TGI with 786-0 renal, with A498 renal, with A549 NSCLC, in the assay with BT-549 breast, in the assay on HT29 colon and in the assay with MCF7 breast was over 100 µM each time. The TGI with MDA-N, with MOLT-4 leukemia, in the assay on NCI-H460 lung, in the assay on NCI-H522 lung, in the assay with NCI/ADR-RES ovarian and in the assay on OVCAR-3 ovarian was over 100 µM each time. In addition, the TGI in the assay with SF-268 CNS is over 100 µM; in the assay on SK-MEL-2 melanoma, over 100 µM; in the assay on SNB-19 CNS, 78.4 µM; in the assay with SNB-75 CNS, 49.7 µM; in the assay on SW-620 colon, over 100 µM; with UACC-62 melanoma, over 100 µM. The same compound showed a TGI with UO-31 renal of over 100 µM.
Regarding `CC(=O)N(C)c1ccc(N=CN(C)C)cc1`, the TGI in the assay on 786-0 renal, in the assay with A498 renal, with A549 NSCLC, in the assay with BT-549 breast, with HT29 colon and in the assay on MCF7 breast was over 100 µM throughout. In addition, the TGI in the assay with MDA-N, in the assay on MOLT-4 leukemia, in the assay with NCI-H522 lung, in the assay on NCI/ADR-RES ovarian, with OVCAR-3 ovarian and in the assay on SF-268 CNS was over 100 µM throughout. Also, the TGI in the assay on SK-MEL-2 melanoma, in the assay with SK-MEL-5 melanoma, with SNB-19 CNS, in the assay on SNB-75 CNS, with UACC-62 melanoma and in the assay with UO-31 renal was over 100 µM in each case.
Take `CC1=NN(C(=O)c2ccccc2O)C(=O)/C1=C/c1cccc(O)c1`: the TGI in the assay on 786-0 renal is over 100 µM; with A498 renal, 0.323 µM; in the assay on A549 NSCLC it was over 100 µM; with BT-549 breast, over 100 µM; in the assay with HT29 colon it was over 100 µM; in the assay with MCF7 breast it was over 100 µM. Moreover, the TGI in the assay on MDA-N was over 100 µM; in the assay with MOLT-4 leukemia it was over 100 µM; with NCI-H460 lung it was over 100 µM; with NCI-H522 lung, over 30.7 µM; in the assay with NCI/ADR-RES ovarian, over 100 µM; in the assay on SF-268 CNS, over 100 µM. Further, the TGI with SK-MEL-2 melanoma is over 48.4 µM; with SK-MEL-5 melanoma, over 100 µM; in the assay with SNB-19 CNS, over 100 µM; with SNB-75 CNS, over 100 µM; in the assay with SW-620 colon it was over 100 µM; in the assay on UACC-62 melanoma it was 2.74 µM.
In the case of `COc1cc(C(=O)/C=C/c2ccc(OCCSCCCCCCCCCCSCCOc3ccc(/C=C/C(=O)c4cc(OC)c(OC)c(OC)c4)cc3)cc2)cc(OC)c1OC`, the TGI in the assay with 786-0 renal, with A498 renal, in the assay on A549 NSCLC, in the assay with BT-549 breast, in the assay on HT29 colon and with MCF7 breast was over 100 µM throughout. Besides, the TGI in the assay on MDA-N, in the assay on MOLT-4 leukemia, in the assay with NCI-H522 lung, in the assay on NCI/ADR-RES ovarian, in the assay on OVCAR-3 ovarian and in the assay with SF-268 CNS was over 100 µM each time. The TGI in the assay with SK-MEL-2 melanoma, in the assay with SK-MEL-5 melanoma, with SNB-19 CNS, in the assay on SNB-75 CNS, in the assay on SW-620 colon and in the assay on UACC-62 melanoma was over 100 µM in each case. The compound further displayed a TGI in the assay with UO-31 renal of over 100 µM.
Turning to `Cc1ccc(S(=O)(=O)N2CCN(S(=O)(=O)c3ccc(C)cc3)CCN(S(=O)(=O)c3ccc(C)cc3)Cc3cc(C#N)c(C#N)cc3CN(S(=O)(=O)c3ccc(C)cc3)CC2)cc1`, the TGI is over 100 µM with 786-0 renal; 58.2 µM with A498 renal; over 100 µM with A549 NSCLC; over 100 µM in the assay with BT-549 breast; over 100 µM in the assay on HT29 colon; over 100 µM in the assay on MCF7 breast. Also, the TGI in the assay with MDA-N, with MOLT-4 leukemia, in the assay on NCI-H460 lung, with NCI-H522 lung, in the assay with NCI/ADR-RES ovarian and in the assay with OVCAR-3 ovarian was over 100 µM each time. Further, the TGI with SF-268 CNS, with SK-MEL-5 melanoma, in the assay with SNB-19 CNS, with SNB-75 CNS, with SW-620 colon and in the assay with UACC-62 melanoma was over 100 µM each time. Further, in the assay with UO-31 renal, the TGI was over 100 µM.
For the compound `COc1cc(=O)c2c(O)c3c(O)oc(C)cc3c(OC)c2c1`, the TGI is 86.7 µM in the assay with 786-0 renal; over 100 µM in the assay with A498 renal; 87.7 µM with A549 NSCLC; over 100 µM in the assay on BT-549 breast; 40.7 µM in the assay with HT29 colon; over 100 µM with MCF7 breast. The TGI with MDA-N was 80.6 µM; with MOLT-4 leukemia, 73.7 µM; in the assay on NCI-H460 lung it was over 100 µM; in the assay on NCI-H522 lung it was over 100 µM; in the assay with NCI/ADR-RES ovarian, 46.7 µM; in the assay on OVCAR-3 ovarian, 59.1 µM. Besides, the TGI in the assay on SF-268 CNS was over 100 µM; in the assay on SK-MEL-2 melanoma, 98.9 µM; in the assay with SK-MEL-5 melanoma, 64.5 µM; in the assay with SNB-19 CNS it was over 100 µM; in the assay with SW-620 colon, over 100 µM; with UACC-62 melanoma, 52.9 µM. The compound also showed a TGI in the assay on UO-31 renal of over 100 µM.
Take `Oc1cc(O)c2ccc(-c3ccc(O)c(O)c3)[o+]c2c1`: the TGI in the assay on 786-0 renal, in the assay on A498 renal, with A549 NSCLC, in the assay with BT-549 breast, in the assay with HT29 colon and with MCF7 breast was over 100 µM each time. Further, the TGI in the assay on MDA-N, in the assay with MOLT-4 leukemia, in the assay on NCI-H460 lung, in the assay on NCI-H522 lung, with NCI/ADR-RES ovarian and in the assay on OVCAR-3 ovarian was over 100 µM in each case. The TGI in the assay with SF-268 CNS, in the assay on SK-MEL-2 melanoma, in the assay on SNB-19 CNS, in the assay on SNB-75 CNS, in the assay with SW-620 colon and in the assay on UACC-62 melanoma was over 100 µM throughout. Further, in the assay with UO-31 renal, the TGI was over 100 µM.
Turning to `C1=NCCN2CCN(CCN=Cc3ccccc3OCc3cccc(n3)COc3ccccc31)CC2`, the TGI with 786-0 renal was 39.5 µM; in the assay on A498 renal it was over 50 µM; with A549 NSCLC it was over 50 µM; in the assay on BT-549 breast, 25.9 µM; in the assay on HT29 colon, 18.5 µM; in the assay on MCF7 breast, 9.29 µM. The TGI is 2.72 µM in the assay with MDA-N; 34.3 µM with MOLT-4 leukemia; over 50 µM in the assay with NCI-H460 lung; over 50 µM in the assay with NCI-H522 lung; 17.2 µM with NCI/ADR-RES ovarian; 4.66 µM in the assay on OVCAR-3 ovarian. The TGI was 21.1 µM in the assay on SF-268 CNS; over 50 µM with SK-MEL-2 melanoma; over 50 µM with SNB-19 CNS; 32.5 µM in the assay with SNB-75 CNS; over 50 µM in the assay with SW-620 colon; 7.8 µM in the assay on UACC-62 melanoma. In the assay on UO-31 renal, this compound returned a TGI of over 50 µM.
Turning to `Clc1ccc(Nc2nnc(CCCCCCCCc3nnc(Nc4ccc(Cl)cc4)o3)o2)cc1`, the TGI was 60.1 µM in the assay with 786-0 renal; over 100 µM with A498 renal; 89.8 µM in the assay with A549 NSCLC; over 100 µM in the assay with BT-549 breast; over 100 µM with HT29 colon; over 100 µM in the assay with MCF7 breast. Moreover, the TGI is over 100 µM in the assay on MDA-N; over 100 µM with MOLT-4 leukemia; over 100 µM in the assay on NCI-H460 lung; 73.1 µM in the assay on NCI-H522 lung; over 100 µM in the assay with NCI/ADR-RES ovarian; over 100 µM in the assay on SK-MEL-2 melanoma. In addition, the TGI in the assay on SK-MEL-5 melanoma was 64.2 µM; with SNB-19 CNS it was over 100 µM; in the assay with SNB-75 CNS, over 100 µM; in the assay on SW-620 colon, over 100 µM; with UACC-62 melanoma, 78.4 µM; in the assay with UO-31 renal it was over 100 µM.
Regarding `O=C1c2cccnc2S(=O)(=O)N1c1ccc(Oc2ccccc2)cc1`, the TGI in the assay with 786-0 renal, in the assay on A498 renal, in the assay on A549 NSCLC, in the assay on BT-549 breast, in the assay on HT29 colon and with MCF7 breast was over 100 µM throughout. Further, the TGI with MDA-N, in the assay on MOLT-4 leukemia, in the assay with NCI-H460 lung, in the assay on NCI-H522 lung, in the assay with NCI/ADR-RES ovarian and in the assay on OVCAR-3 ovarian was over 100 µM each time. Further, the TGI with SF-268 CNS, in the assay with SK-MEL-2 melanoma, with SNB-19 CNS, in the assay with SNB-75 CNS, in the assay on SW-620 colon and in the assay on UACC-62 melanoma was over 100 µM throughout. In addition, in the assay with UO-31 renal, the TGI is over 100 µM.
